Patent publication US10398689B2, “Benzopiperidine derivative, preparation method thereof and medical use thereof” (Jiangsu Hengrui Medicine Co., Ltd., priority 2015, dated 2019)

How the values were obtained:
[1] = target: T1, ER (estrogen receptor) (Homo sapiens, UniProt P03372); test: Inhibition of the binding of estrogen (E) to estrogen receptor (ER), MCF-7/ERE-luciferase reporter cells; format: cell-based; conditions: MCF-7/ERE-luciferase cells, 0.1 nM estradiol, 24 hours, chemiluminescence; read-out: IC50 value of inhibition effect on the binding of E to ER
T1 construct: MCF-7/ERE-luciferase monoclonal cells were selected by transfection of MCF-7; host or cells: MCF-7/ERE-luciferase (only the ERE-luciferase reporter was transfected)
T1 sequence (P03372 1-595): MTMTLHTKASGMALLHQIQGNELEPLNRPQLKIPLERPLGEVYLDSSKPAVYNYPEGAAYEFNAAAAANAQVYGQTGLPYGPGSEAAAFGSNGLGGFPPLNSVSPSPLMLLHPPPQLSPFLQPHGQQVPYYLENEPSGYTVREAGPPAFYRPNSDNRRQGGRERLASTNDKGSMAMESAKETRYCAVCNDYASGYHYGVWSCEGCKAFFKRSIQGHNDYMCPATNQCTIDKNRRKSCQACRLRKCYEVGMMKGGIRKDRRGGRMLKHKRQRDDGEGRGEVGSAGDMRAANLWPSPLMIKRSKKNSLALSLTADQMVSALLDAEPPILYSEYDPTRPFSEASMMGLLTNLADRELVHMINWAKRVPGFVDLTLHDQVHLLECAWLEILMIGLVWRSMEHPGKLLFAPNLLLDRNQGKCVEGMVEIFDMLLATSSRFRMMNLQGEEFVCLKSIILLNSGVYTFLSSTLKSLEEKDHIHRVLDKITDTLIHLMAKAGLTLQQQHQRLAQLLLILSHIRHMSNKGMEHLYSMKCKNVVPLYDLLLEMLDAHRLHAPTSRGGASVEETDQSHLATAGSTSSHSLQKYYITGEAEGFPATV
How it was run: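 MCF-7 cells stably carrying an ERE-luciferase reporter, grown in charcoal-stripped FBS medium, were treated with compound plus 0.1 nM estradiol for 24 h at 37 °C. Luciferase chemiluminescence was then read and plotted against log compound concentration to derive IC50.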

[2] = Pharmacokinetics assay in BALB/C nude mice after intragastrical administration; format: in vivo; conditions: female, mouse, po, 3 mg/kg, plasma; for Vd/F: read-out: Apparent Distribution Volume Vz/F; for AUC: read-out: Area Under Curve AUC; for CL/F: read-out: Clearance CL/F; for half-life: read-out: Half-Life t1/2 (converted); for MRT: read-out: Mean Residence Time MRT; for Cmax: read-out: Plasma Conc. Cmax
Method: BALB/C nude mice were used as test animals. The drug concentration in plasma at different time points was determined by LC/MS/MS after intragastrical administration of the compounds of Examples 1, 7, 8, 10, 11, 14, 16, 39 and 42 to BALB/C nude mice. The pharmacokinetic behavior of the compounds of the compounds of the present invention was studied and evaluated in BALB/C nude mice.
Eighty-one (81) female BALB/C nude mice, were equally divided into 9 groups, which were purchased from SINO-BRITSH SIPPR/BK LAB. ANIMAL LTD., CO, with Certificate No.: SOCK (Shanghai) 2008-0016.
The appropriate amount of each test compound was weighed, and successively added with 9% PEG400+0.5% tween 80+0.5% PVP+90% aqueous solution of 0.5% CMC.
After an overnight fasting, 81 female BALB/C nude mice were equally divided into 9 groups; and administered the test compounds intragastrically at an administration volume of 0.2 mL/10 g.
81 female Balb/C nude mice were administered the test compounds intragastrically after an overnight fasting. Blood (0.1 mL) was taken (3 animals at each time point) at 0.5, 1.0, 2.0, 4.0, 6.0, 8.0, 11.0, and 24.0 h after administration. The samples were stored in heparinized test tubes, and centrifuged for 10 minutes at 3,500 rpm to separate the blood plasma. The plasma samples were stored at −20° C.
The concentration of the prototype drug in the plasma and in the solution to be administered was determined by liquid chromatography tandem mass spectrometry (LC/MS MS).

SMILES | IC50 [1] | Vd/F [2] | AUC [2] | CL/F [2] | half-life [2] | MRT [2] | Cmax [2]
CCc1ccc(N2C(C)Cc3cc(-c4cnn(C)c4)ccc3C2c2ccc(/C=C/C(=O)O)cc2)cc1 [Example 1, (E)-3-(4-((1R,3R/1S,3S)-2-(4-Ethylphenyl)-3-methyl-6-(1-methyl-1H-pyrazol-4-yl)-1,2,3,4-tetrahydroisoquinolin-1-yl)phenyl)acrylic acid] | 2.11 nM | 0.865 L/kg | 14400 ng·h/mL | 3.48 mL/min/kg | 172 min | 4.53 h | 3440 ng/mL
C[C@@H]1Cc2cc(-c3cnn(C)c3)ccc2[C@@H](c2ccc(/C=C/C(=O)O)cc2)N1c1ccc(C2CC2)cc1 [Example 11, (E)-3-(4-((1R,3R)-2-(4-Cyclopropylphenyl)-3-methyl-6-(1-methyl-1H-pyrazol-4-yl)-1,2,3,4-tetrahydroisoquinolin-1-yl)phenyl)acrylic acid] | 0.32 nM | 1.48 L/kg | 16400 ng·h/mL | 3.06 mL/min/kg | 335 min | 7.9 h | 1890 ng/mL
CCn1cc(-c2ccc3c(c2)C[C@@H](C)N(c2ccc(C4CC4)cc2)[C@@H]3c2ccc(/C=C/C(=O)O)cc2)cn1 [Example 14, (E)-3-(4-((1R,3R)-2-(4-Cyclopropylphenyl)-6-(1-ethyl-1H-pyrazol-4-yl)-3-methyl-1,2,3,4-tetrahydroisoquinolin-1-yl)phenyl)acrylic acid] | 0.25 nM | 1.26 L/kg | 14800 ng·h/mL | 3.39 mL/min/kg | 257 min | 6.73 h | 2480 ng/mL

The next lines start with the values.

IC50 [1] | Vd/F [2] | AUC [2] | CL/F [2] | half-life [2] | MRT [2] | Cmax [2] | SMILES
1.79 nM | 1.23 L/kg | 12900 ng·h/mL | 3.88 mL/min/kg | 220 min | 6.8 h | 1280 ng/mL | CCn1cc(-c2ccc3c(c2)CC(C)N(c2ccc(C(C)C)cc2)C3c2ccc(/C=C/C(=O)O)cc2)cn1 [Example 7, (E)-3-(4-((1R,3R/1S,3S)-6-(1-Ethyl-1H-pyrazol-4-yl)-2-(4-isopropylphenyl)-3-methyl-1,2,3,4-tetrahydroisoquinolin-1-yl)phenyl)acrylic acid]
0.39 nM | 1.51 L/kg | 9380 ng·h/mL | 5.33 mL/min/kg | 196 min | 5.26 h | 1620 ng/mL | CCn1cc(-c2ccc3c(c2)C[C@@H](C)N(c2ccc(C(C)C)cc2)[C@@H]3c2ccc(/C=C/C(=O)O)cc2)cn1 [Example 8, (E)-3-(4-((1R,3R)-6-(1-Ethyl-1H-pyrazol-4-yl)-2-(4-isopropylphenyl)-3-methyl-1,2,3,4-tetrahydroisoquinolin-1-yl)phenyl)acrylic acid]
0.52 nM | 3.1 L/kg | 11200 ng·h/mL | 4.46 mL/min/kg | 482 min | 9.21 h | 1270 ng/mL | CC(C)c1ccc(N2[C@H](c3ccc(/C=C/C(=O)O)cc3)c3ccc(-c4cnn(C)c4)cc3C[C@H]2C)cc1 [Example 42, (E)-3-(4-((1R,3R)-2-(4-Isopropylphenyl)-3-methyl-6-(1-methyl-1H-pyrazol-4-yl)-1,2,3,4-tetrahydroisoquinolin-1-yl)phenyl)acrylic acid]
